Results: patent US5763430A, “Method of treating a viral infection by administering a steroid compound” (priority 1995, dated 1998)
In brackets after ≈: the same amount, converted by molar mass.

Columns and labels:
[1] = tested on: bovine pulmonary endothelial cells; test: growth inhibition of endothelial cells in vitro (absorbance at 600 nm); assay type: cell-based; details: 1 μg/ml, FIG. 3A
mouse IV PK study = assay type: in vivo; details: i.v., mouse blood stream, HPLC
Experimental: To assess clearance, a mouse IV PK study was performed for compound 319 and squalamine. The compound was administered i.v. and blood samples were taken every 10 minutes. The concentration of the administered steroid was determined by HPLC analysis.

human lymphocytes = test: inhibition of mitogen (PHA)-stimulated growth of human T-cells; details: 10 μg/ml
Experimental: Specific assays were used to identify steroids with a particular biological activity, such as an assay for inhibition of mitogen-stimulated growth of human T-cells.
Human heparinized blood, freshly collected, was introduced into tissue culture flasks containing 10 μg/ml phytohaemagglutinin (PHA) in RPMI medium with 10% FCS. Various purified steroids were introduced subsequently at concentrations of 1, 5, and 10 μg/ml. Cultures were incubated for 72 hours, after which time colcemid was added to 1 μg/ml. Cultures were maintained for an additional 2 hours, and cells collected. Miotic figures were estimated using standard cytochemical techniques, following Giemsa staining.

P. aerug = test: antibiotic activity (MIC); assay type: cell-based; details: P. aerug; read-out: MIC
Text: (§1) Thus, it is possible to achieve an antimicrobial steroid with or without squalamine-like pharmacological activity.

C. albicans = test: antibiotic activity (MIC); assay type: cell-based; details: Candida albicans; C. albicans; read-out: MIC
Text: as §1

S. aureus = test: antibiotic activity (MIC); assay type: cell-based; details: Staphylococcus aureus; S. aureus; read-out: MIC
Text: as §1

E. coli = test: antibiotic activity (MIC); assay type: cell-based; details: Escherichia coli; E. coli; read-out: MIC
Text: as §1

Q: With CC(C)[C@@H](CC[C@@H](C)[C@H]1CC[C@H]2[C@@H]3[C@H](O)C[C@H]4C[C@@H](NCCCNCCCCN)CC[C@]4(C)[C@H]3CC[C@]12C)OS(=O)(=O)O [Compound 1256] as the compound, how does the “growth of bovine pulmonary artery endothelial cells” value [1] read?
A: inhibited the growth

Q: What about the half-life (mouse IV PK study) of the same compound?
A: ~35 min

Q: What about the “inhibition of blast transformation” value (human lymphocytes) of the same compound?
A: Some effect

Q: And the MIC (P. aerug)?
A: 16 µg/mL (≈ 25.5 µM)

Q: What about the MIC (C. albicans) of the same compound?
A: 8 µg/mL (≈ 12.7 µM)

Q: What about the MIC (S. aureus) of the same compound?
A: 0.5 to 1 µg/mL (≈ 0.796 to 1.59 µM)

Q: And the MIC (E. coli)?
A: 2 to 4 µg/mL (≈ 3.18 to 6.37 µM)
